Assays:
Type in all cases: in vivo
monochoria (Mo) [1] = assay: Test Example 1: herbicidal effects by flooded paddy field treatment; conditions: dose 100 gai/10a, examined on 21st day after treatment, index 0-5 per Table 44;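 further: 0-5 growth inhibition grade; 5 = over 90%; 4 = 70-90%; 3 = 50-70%; 2 = 30-50%; 1 = 10-30%; 0 = under 10%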
Summary of the method: (§1)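 Puddled paddy soil in pots, seeds sown, 3 cm flood. Day after sowing: wettable powder diluted in water, applied dropwise to water surface, 100 g a.i./10 ares. Greenhouse; visual herbicidal rating at day 21 post-treatment.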

green foxtail (Se) = assay: Test Example 2: herbicidal effects by upland soil treatment; conditions: dose 100 g active ingredient per 10 ares, examined on the 21st day after treatment, standards of Table 44;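 further: 0-5 growth inhibition grade; 5 = over 90%; 4 = 70-90%; 3 = 50-70%; 2 = 30-50%; 1 = 10-30%; 0 = under 10%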
Summary of the method: (§2)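 Pre-emergence test: barnyard grass and green foxtail sown in upland soil, then soil surface sprayed with wettable-powder formulation at 100 g active ingredient per 10 ares (100 l per 10 ares). Grown in greenhouse; herbicidal effect scored on a rating scale 21 days after treatment.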

barnyard grass (Ec) [2] = assay: as above; set-up: scale not given here; conditions: dose 100 g active ingredient per 10 ares, examined on the 21st day after treatment, standards of Table 44
Summary of the method: as §2

monochoria (Mo) [3] = assay: Test Example 4: selectivity for a crop plant by flooded paddy field treatment; set-up: scale not given here; conditions: dose 25 g active ingredient per 10 ares, examined on the 21st day after treatment
Summary of the method: (§3)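 Flooded paddy pots, 3 cm water; weeds sown from seed, rice transplanted at 2nd-leaf stage. Day after: wettable powder diluted in water, applied dropwise to water surface, 25 g a.i./10 a. Greenhouse; herbicidal effect rated at day 21.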

barnyard grass (Eo) [4] = assay: as above; set-up: scale not given here; conditions: dose 25 g active ingredient per 10 ares, examined on the 21st day after treatment
Summary of the method: as §3

rice (Or) = assay: as above; set-up: scale not given here; conditions: rice transplanted at second leaf stage, dose 25 g active ingredient per 10 ares, examined on the 21st day after treatment
Summary of the method: as §3

corn (Ze) = assay: Test Example 5: selectivity for a crop plant by soil treatment in upland field; set-up: scale not given here; conditions: dose 25 gai/10a, 21st day after treatment, index per Table 44
Protocol: (§4) In a 80 cm^2 plastic pot, upland soil was filled, and seeds of barnyard grass (Ec), green foxtail (Se), soybean (G1), wheat (Tr) and corn (Ze) were sown and covered with soil. A wettable powder prepared in accordance with Formulation Example 1 was diluted with water and uniformly applied to the soil surface by a small size spray at a rate of 100 l per 10 ares so that the dose of the active ingredient would be 25 g per 10 ares. Thereafter, cultivation was carried out in a green house, and on the 21st day after the treatment, the herbicidal effects were examined in accordance with the standards of Table 44.

wheat (Tr) = assay: as above; set-up: scale not given here; conditions: dose 25 gai/10a, 21st day after treatment, index per Table 44
Protocol: as §4

barnyard grass (Ec) [5] = assay: as above; set-up: scale not given here; conditions: dose 25 gai/10a, 21st day after treatment, index per Table 44
Protocol: as §4

soybean (G1) = assay: as above; set-up: scale not given here; conditions: dose 25 gai/10a, 21st day after treatment, index per Table 44
Protocol: as §4

barnyard grass (Ec) [6] = assay: Test Example 3: herbicidal effects by foliage treatment in upland field; set-up: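 0-5 growth inhibition grade; 5 = over 90%; 4 = 70-90%; 3 = 50-70%; 2 = 30-50%; 1 = 10-30%; 0 = under 10%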; conditions: dose 100 g active ingredient per 10 ares, examined on the 14th day after treatment
Summary of the method: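 Barnyard grass and green foxtail were grown in upland soil for 2 weeks in a greenhouse. A water-diluted wettable powder was sprayed over the foliage at 100 l per 10 ares, giving 100 g active ingredient per 10 ares. Herbicidal effect was scored on day 14 after treatment.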

barnyard grass (Eo) [7] = assay: Test Example 1: herbicidal effects by flooded paddy field treatment; conditions: dose 100 gai/10a, examined on 21st day after treatment, index 0-5 per Table 44;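 further: 0-5 growth inhibition grade; 5 = over 90%; 4 = 70-90%; 3 = 50-70%; 2 = 30-50%; 1 = 10-30%; 0 = under 10%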
Summary of the method: as §1

Compound | Herbicidal effect index, Mo (monochoria (Mo) [1]) | herbicidal effects, Se (green foxtail) (green foxtail (Se)) | herbicidal effects, Ec (barnyard grass) (barnyard grass (Ec) [2]) | Mo (herbicidal effects, index) (monochoria (Mo) [3]) | Eo (herbicidal effects, index) (barnyard grass (Eo) [4]) | Or (effect on crop plant rice, index) (rice (Or)) | Ze (herbicidal effect index on crop) (corn (Ze)) | Tr (herbicidal effect index on crop) (wheat (Tr)) | Ec (herbicidal effect index) (barnyard grass (Ec) [5]) | Gl (herbicidal effect index on crop) (soybean (G1)) | Ec (herbicidal effects, index) (barnyard grass (Ec) [6]) | Herbicidal effect index, Eo (barnyard grass (Eo) [7])
CCC(C)C(c1cncnc1C(F)(F)F)N(C)C(=O)Cc1ccc(Cl)cc1 (mixture of isomers) [Compound 1-59] | 5 | 5 | 5 | 5 | 5 | 0 | 0 | 1 | 5 | 0 | 4 | 5
CCC(C)C(c1cncnc1C(F)(F)F)N(C)C(=O)Cc1ccc(C)cc1 (mixture of isomers) [Compound 1-60] | 5 | 5 | 5 | 5 | 5 | 1 | 0 | 2 | 5 | 1 | 4 | 5
CC(C)C(c1cncnc1C(F)(F)F)N(C)C(=O)Cc1ccc(I)cc1 (racemic) [Compound 1-42] | 5 | 5 | 5 | 5 | 5 | 0 | 0 | 0 | 5 | 0 | 4 | 5
CC(C)C(c1cncnc1C(F)(F)F)N(C)C(=O)Cc1ccc(Cl)cc1F (racemic) [Compound 1-46] | 5 | 5 | 5 | 5 | 5 | 0 | 0 | 3 | 5 | 1 | 4 | 5
CCN(C(=O)Cc1ccc(Cl)cc1)C(c1cncnc1C(F)(F)F)C(C)C (racemic) [Compound 1-48] | 5 | 5 | 5 | 5 | 5 | 1 | 0 | 1 | 4 | 0 | 5 | 5
Cc1ccccc1CC(=O)N(C)C(c1cncnc1C(F)(F)F)C(C)C (racemic) [Compound 1-50] | 5 | 5 | 5 | 5 | 5 | 1 | 0 | 3 | 4 | 3 | 4 | 5
CN(C(=O)Cc1ccc(F)cc1)C(c1cncnc1C(F)(F)F)C(C)(C)C (racemic) [Compound 1-53] | 5 | 5 | 5 | 5 | 5 | 1 | 0 | 2 | 4 | 1 | 4 | 5
CN(C(=O)Cc1ccc(Cl)cc1)C(c1cncnc1C(F)(F)F)C(C)(C)C (racemic) [Compound 1-54] | 5 | 5 | 5 | 5 | 5 | 1 | 0 | 1 | 4 | 0 | 5 | 5
Cc1ccc(CC(=O)N(C)C(c2cncnc2C(F)(F)F)C(C)(C)C)cc1 (racemic) [Compound 1-55] | 5 | 5 | 5 | 5 | 5 | 1 | 0 | 1 | 5 | 1 | 4 | 5
CCN(C(=O)Cc1ccc(C)cc1)C(c1cncnc1C(F)(F)F)C(C)C (racemic) [Compound 1-61] | 5 | 5 | 5 | 5 | 5 | 1 | 0 | 3 | 5 | 1 | 4 | 5
CC(C)C(c1cncnc1C(F)(F)F)N(C)C(=O)Cc1ccccc1F (racemic) [Compound 1-100] | 5 | 5 | 5 |  |  |  | 2 | 2 | 5 | 0 | 5 | 5
